Assay results reported in ChEMBL document CHEMBL3763116, “Synthesis and evaluation of colletoic acid core derivatives” (Eur J Med Chem, 2016).
pEC50, pIC50: −log10 of the molar value.

Legend:
[1] = target: T1, 11-beta-hydroxysteroid dehydrogenase type 2 (Homo sapiens, UniProt P80365); assay: Inhibition of full length human 11beta-HSD2 expressed in HEK293 cells using […] as substrate incubated for 2 hrs by HTRF assay in presence of NAD+; type: cell-based
T1 sequence (P80365 whole entry): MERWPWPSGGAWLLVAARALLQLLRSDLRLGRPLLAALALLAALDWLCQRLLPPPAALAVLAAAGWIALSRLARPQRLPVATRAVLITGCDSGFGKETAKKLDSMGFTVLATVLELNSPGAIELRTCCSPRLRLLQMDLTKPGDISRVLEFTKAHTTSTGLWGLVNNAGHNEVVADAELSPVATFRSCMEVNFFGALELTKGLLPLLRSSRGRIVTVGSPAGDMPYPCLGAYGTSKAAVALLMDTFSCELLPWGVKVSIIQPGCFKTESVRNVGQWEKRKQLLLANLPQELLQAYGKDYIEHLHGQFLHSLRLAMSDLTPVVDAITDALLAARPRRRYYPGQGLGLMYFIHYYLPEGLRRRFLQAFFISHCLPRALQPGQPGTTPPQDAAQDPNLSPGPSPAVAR

BJ = assay: Cytotoxicity against human BJ cells after 72 hrs by Cell TitreGlo assay; type: cell-based
[2] = target: 11-beta-hydroxysteroid dehydrogenase 1 (Homo sapiens, UniProt P28845); assay: Inhibition of 11beta-HSD1 (unknown origin) using cortisol as substrate assessed as NADPH formation by fluorescent plate reader analysis
11-beta-hydroxysteroid dehydrogenase 1, sequence (P28845 whole entry): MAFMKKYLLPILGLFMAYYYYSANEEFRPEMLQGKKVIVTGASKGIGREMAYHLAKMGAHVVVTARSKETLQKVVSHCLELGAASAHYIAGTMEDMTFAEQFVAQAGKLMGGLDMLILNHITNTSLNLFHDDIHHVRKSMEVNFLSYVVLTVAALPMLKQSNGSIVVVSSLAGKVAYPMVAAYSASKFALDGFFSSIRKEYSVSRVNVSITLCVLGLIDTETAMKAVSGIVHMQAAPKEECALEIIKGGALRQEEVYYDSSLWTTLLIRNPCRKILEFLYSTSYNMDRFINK

| Structure (SMILES) | pIC50 [1] | pEC50 (BJ) | pIC50 [2] |
| --- | --- | --- | --- |
| CC(C)=CCC/C(C)=C/CNC(=O)[C@H]1CC=C(C(C)C)[C@]12C=CC(=O)CC2 | < 3.00 | < 4.05 | 4.74 |
| C=C1CC[C@H](C(=O)OCC)[C@@]12C=CC(=O)CC2 | – | < 4.05 | < 3.00 |
| CC1=CC[C@H](CO)[C@@]12C=CC(=O)CC2 | – | < 4.05 | < 3.00 |
| CCOC(=O)[C@H]1CC[C@@H](C(C)C)[C@]12C=CC(=O)CC2 | – | < 4.05 | < 3.00 |
| CC(C)C1=CC[C@H]2C(=O)O[C@@H]3CC(=O)CC[C@@]132 | – | < 4.05 | < 3.00 |
| CC(C)[C@@H]1CC[C@@H]2CO[C@@H]3[C@H](O)[C@](C)(O)CC[C@]231 | – | < 4.05 | < 3.00 |
| CC(C)[C@@H]1CC[C@H](CO)[C@]12CC[C@@](C)(O)C[C@H]2O | – | < 4.05 | < 3.00 |
| CCn1c2ccccc2c2nnc(S(=O)(=O)C[C@H]3CC=C(C(C)C)[C@]34C=CC(=O)CC4)nc21 | < 3.00 | < 4.05 | 4.13 |
| CC(C)C1=CC[C@H](CS(=O)(=O)c2nc3ccccc3o2)[C@@]12C=CC(=O)CC2 | < 3.00 | < 4.05 | < 3.00 |
| C=C1CC[C@]2(C[C@@H]1OC(C)=O)[C@@H](C(=O)OCC)CC[C@H]2C(C)C | – | < 4.05 | < 3.00 |
| CC(C)C1=CC[C@H](CN2C(=O)c3ccccc3S2(=O)=O)[C@@]12C=CC(=O)CC2 | < 3.00 | < 4.05 | 3.47 |
| O=C1C=C[C@@]2(CC1)c1ccccc1C[C@@H]2C(=O)O | – | < 4.05 | < 3.00 |
| CC(C)C1=CC[C@H](CS(=O)(=O)c2nnnn2-c2ccccc2)[C@@]12C=CC(=O)CC2 | < 3.00 | < 4.05 | 3.61 |
| CC(C)(C)[Si](C)(C)OCCC1=CC[C@H](CO)[C@@]12C=CC(=O)CC2 | – | < 4.05 | < 3.00 |
| O=C1C=C[C@@]2(CC1)C(c1ccccc1)=CC[C@@H]2CO | – | < 4.05 | < 3.00 |
| CCOC[C@H]1CC=C(C(C)C)[C@]12C=CC(=O)CC2 | – | < 4.05 | < 3.00 |

| Structure (SMILES) | pIC50 [1] | pEC50 (BJ) | pIC50 [2] |
| --- | --- | --- | --- |
| C[C@@]1(O)CC[C@]23c4ccccc4C[C@@H]2CO[C@@H]3[C@@H]1O | – | < 4.05 | < 3.00 |
| CC(C)C1=CC[C@H](CO)[C@]12CC[C@](C)(O)[C@H]1O[C@H]12 | – | < 4.05 | < 3.00 |
| CC(C)C1=CC[C@H](CSc2nc3ccccc3s2)[C@@]12C=CC(=O)CC2 | < 3.00 | < 4.05 | < 3.00 |
| CC(C)C1=CC[C@H](CSc2nnnn2-c2ccccc2)[C@@]12C=CC(=O)CC2 | < 3.00 | < 4.05 | < 3.00 |
| CC(C)C1=CC[C@H](CO)C12CCC(=O)CC2 | – | < 4.05 | < 3.00 |
| CC(C)[C@@H]1CC[C@H](CO)[C@]12CC[C@@](C)(O)[C@H]1O[C@H]12 | – | < 4.05 | < 3.00 |
| CC(C)C1=CC[C@H](CSc2ccc3ccccc3c2)[C@@]12C=CC(=O)CC2 | < 3.00 | < 4.05 | < 3.00 |
| COC1(OC)C=C[C@@]2(CC1)C(C(C)C)=CC[C@@H]2CO | – | < 4.05 | < 3.00 |
| CC(C)C1=CC[C@H](CS(=O)(=O)c2ccc3ccccc3c2)[C@@]12C=CC(=O)CC2 | < 3.00 | < 4.05 | 5.10 |
| CC(C)C1=CC[C@H](Cn2cc(CNC(=O)OC(C)(C)C)nn2)[C@@]12C=CC(=O)CC2 | < 3.00 | < 4.05 | < 3.00 |
| CC(C)C1=CC[C@H](C(=O)Nc2ncc(-c3ccc(Cl)cc3)s2)[C@@]12C=CC(=O)CC2 | < 3.00 | < 4.05 | 3.91 |
| O=C1C=C[C@@]2(CC1)C(COCc1ccccc1)=CC[C@@H]2CO | – | < 4.05 | < 3.00 |
| CC(C)C1=CC[C@H](Cn2cc(CN(c3ncccn3)S(=O)(=O)c3ccc(N)cc3)nn2)[C@@]12C=CC(=O)CC2 | < 3.00 | < 4.05 | < 3.00 |
| CC(C)C1=CC[C@H](CO)[C@]12CC[C@@](C)(O)[C@@H](O)C2 | – | < 4.05 | < 3.00 |
| CC(C)C1=CC[C@H](CS(=O)(=O)c2nc3ccccc3s2)[C@@]12C=CC(=O)CC2 | < 3.00 | < 4.05 | < 3.00 |
| CC(C)C1=CC[C@H](C(=O)O)[C@@]12C=CC(=O)CC2 | – | < 4.05 | < 3.00 |
